Measured values published in patent US12497393B2, “β-lactam compound, use thereof and preparation method therefor” (priority 2020, dated 2025).
≈ marks a conversion by molar mass, not a printed value. Read-outs that look alike come from different tables or passages of the source.

Experiments:
Experiment in all cases: Antibacterial activity MIC assay (two-fold dilution agar plating)
Format in all cases: cell-based
Acinetobacter baumannii = settings: Acinetobacter baumannii, read-out: Minimal Inhibitory Concentration (MIC)
Protocol: (§1) Antibacterial Activity-Evaluating Method (MIC Assay)
(§2) In this study, the compounds of the present invention were tested for their antibacterial activities by using two-fold dilution agar plating method and Denley Multipoint Inoculator A400 according to the guidelines of the CLSI/NCCLS standard. The tested strains were amplified by hydrolyzed casein peptone (Mueller-Hinton Agar) broth and Brain and Heart Infusion. The strains used in this study were bacterial strains that were purchased from ATCC or clinically isolated in Chinese hospitals. Aztreonam, polymyxin or levofloxacin was used as positive control. The drugs were diluted with hydrolyzed casein peptone broth to the desired concentrations including 128.0, 64.0, 32.0, 16.0, 8.0, 4.0, 2.0, 1.0, 0.5, 0.25, 0.125, 0.06 and 0.03 μg/mL, and then placed respectively into each well and mixed thoroughly. After inoculation, the tested strains were incubated for 18 hours at a constant temperature of 35° C., and their growth levels were observed. The drug concentration with no microbial growth in the well was recorded as the lowest Minimal Inhibitory Concentration (MIC).

Salmonella typhi = settings: Salmonella enterica, TYPHI, read-out: Minimal Inhibitory Concentration (MIC)
Protocol: as §1, §2

Proteus vulgaris = settings: Proteus vulgaris, ATCC29905, Proteus vulgaris ATCC 29905; read-out: Minimal Inhibitory Concentration (MIC)
Protocol: as §1, §2

Serratia marcescens = settings: ATCC21074; Serratia marcescens ATCC 21074; read-out: Minimal Inhibitory Concentration (MIC)
Protocol: as §1, §2

Enterobacter aerogenes = settings: Klebsiella aerogenes, ATCC13048; Enterobacter aerogenes ATCC 13048; read-out: Minimal Inhibitory Concentration (MIC)
Protocol: as §1, §2

Providencia rettgeri = settings: Providencia rettgeri, ATCC31052, Providencia rettgeri ATCC 31052; read-out: Minimal Inhibitory Concentration (MIC)
Protocol: as §1, §2

[1] = test system: Stenotrophomonas maltophilia; settings: ATCC13636; Stenotrophomonas maltophilia ATCC 13636; read-out: Minimal Inhibitory Concentration (MIC)
Protocol: as §1, §2

Escherichia coli = settings: Escherichia coli, read-out: Minimal Inhibitory Concentration (MIC)
Protocol: as §1, §2

Klebsiella Pneumoniae = settings: Klebsiella pneumoniae, read-out: Minimal Inhibitory Concentration (MIC)
Protocol: as §1, §2

Proteus mirabilis = settings: Proteus mirabilis, ATCC49565, Proteus mirabilis ATCC 49565; read-out: Minimal Inhibitory Concentration (MIC)
Protocol: as §1, §2

Shigella flexneri = settings: ATCC12022; Shigella flexneri ATCC 12022; read-out: Minimal Inhibitory Concentration (MIC)
Protocol: as §1, §2

Citrobacter freundii = settings: ATCC43864; Citrobacter freundii ATCC 43864; read-out: Minimal Inhibitory Concentration (MIC)
Protocol: as §1, §2

Pseudomonas aeruginosa = settings: read-out: Minimal Inhibitory Concentration (MIC)
Protocol: as §1, §2

Enterobacter cloacae = settings: read-out: Minimal Inhibitory Concentration (MIC)
Protocol: as §1, §2

[2] = ATCC19606, Acinetobacter baumannii ATCC 19606
[3] = ATCC25922, Escherichia coli ATCC 25922, ESBLs(−)
[4] = ATCC35218, Escherichia coli ATCC 35218, ESBLs(+)
[5] = Escherichia coli 08-85, mcr-1(+)
[6] = Escherichia coli 13-43, mcr-1(+)
[7] = Escherichia coli 13-66, mcr-1(+)
[8] = Escherichia coli 16-1, ESBLs(+)
[9] = Escherichia coli 16-7, ESBLs(−)
[10] = Escherichia coli 17-R28, CRE, NDM-1(+)
[11] = Escherichia coli CDC1001728, NDM-1(+)
[12] = ATCC700603, Klebsiella Pneumoniae ATCC 700603, ESBLs(+)
[13] = ATCCBAA2146, Klebsiella Pneumoniae ATCC BAA-2146, NDM-1(+)
[14] = Klebsiella Pneumoniae 09-20, mcr-1(+)
[15] = Klebsiella Pneumoniae 16-2, ESBLs(−)
[16] = Klebsiella Pneumoniae 16-14, ESBLs(+)
[17] = Klebsiella Pneumoniae 17-R27, CRE
[18] = ATCC27853, Pseudomonas aeruginosa ATCC 27853
[19] = ATCC43560, Enterobacter cloacae ATCC 43560
[20] = Enterobacter cloacae CDC1000654

| Structure (SMILES) | MIC (Acinetobacter baumannii; [2]) [µg/mL] | MIC (Acinetobacter baumannii; Acinetobacter baumannii 16-16) [µg/mL] | MIC (Acinetobacter baumannii; Acinetobacter baumannii 16-33) [µg/mL] | MIC (Salmonella typhi) [µg/mL] | MIC (Proteus vulgaris) [µg/mL] | MIC (Serratia marcescens) [µg/mL] | MIC (Enterobacter aerogenes) [µg/mL] | MIC (Providencia rettgeri) [µg/mL] | MIC [1] [µg/mL] | MIC (Escherichia coli; [3]) [µg/mL] | MIC (Escherichia coli; [4]) [µg/mL] | MIC (Escherichia coli; [5]) [µg/mL] | MIC (Escherichia coli; [6]) [µg/mL] | MIC (Escherichia coli; [7]) [µg/mL] | MIC (Escherichia coli; [8]) [µg/mL] | MIC (Escherichia coli; [9]) [µg/mL] | MIC (Escherichia coli; [10]) [µg/mL] | MIC (Escherichia coli; [11]) [µg/mL] | MIC (Klebsiella Pneumoniae; [12]) [µg/mL] | MIC (Klebsiella Pneumoniae; [13]) [µg/mL] | further results |
| --- | --- | --- | --- | --- | --- | --- | --- | --- | --- | --- | --- | --- | --- | --- | --- | --- | --- | --- | --- | --- | --- |
| CC(C)[C@@H](O/N=C(\C(=O)N[C@@H]1C(=O)N(OS(=O)(=O)O)C1(C)C)c1csc(N)n1)C(=O)O [Compound A-5] | > 64 | > 64 | > 64 | 32 (≈ 66.7 µM) | 4 (≈ 8.34 µM) | 32 (≈ 66.7 µM) | 32 (≈ 66.7 µM) | 4 (≈ 8.34 µM) | > 64 | 16 (≈ 33.4 µM) | 16 (≈ 33.4 µM) | 32 (≈ 66.7 µM) | 32 (≈ 66.7 µM) | 16 (≈ 33.4 µM) | 8 (≈ 16.7 µM) | 32 (≈ 66.7 µM) | > 64 | 32 (≈ 66.7 µM) | 64 (≈ 133 µM) | > 64 | MIC (Klebsiella Pneumoniae; [14]): 16 µg/mL (≈ 33.4 µM); MIC (Klebsiella Pneumoniae; [15]): 32 µg/mL (≈ 66.7 µM); MIC (Klebsiella Pneumoniae; [16]): 16 µg/mL (≈ 33.4 µM); MIC (Klebsiella Pneumoniae; [17]): 32 µg/mL (≈ 66.7 µM); MIC (Proteus mirabilis): 1 µg/mL (≈ 2.09 µM); MIC (Shigella flexneri): 64 µg/mL (≈ 133 µM); MIC (Citrobacter freundii): 16 µg/mL (≈ 33.4 µM); MIC (Pseudomonas aeruginosa; [18]): > 64 µg/mL; MIC (Pseudomonas aeruginosa; Pseudomonas aeruginosa 16-11): > 64 µg/mL; MIC (Pseudomonas aeruginosa; Pseudomonas aeruginosa PAO1): > 64 µg/mL; MIC (Enterobacter cloacae; [19]): 16 µg/mL (≈ 33.4 µM); MIC (Enterobacter cloacae; [20]): > 64 µg/mL |
| CC(C)[C@H](O/N=C(\C(=O)N[C@@H]1C(=O)N(OS(=O)(=O)O)C1(C)C)c1csc(N)n1)C(=O)O [Compound A-4] | 64 (≈ 133 µM) | > 64 | 32 (≈ 66.7 µM) | 0.12 (≈ 0.25 µM) | ≤ 0.03 | 0.25 (≈ 0.521 µM) | 0.5 (≈ 1.04 µM) | ≤ 0.03 | 8 (≈ 16.7 µM) | 0.25 (≈ 0.521 µM) | 0.12 (≈ 0.25 µM) | 0.25 (≈ 0.521 µM) | 0.25 (≈ 0.521 µM) | 0.25 (≈ 0.521 µM) | 0.12 (≈ 0.25 µM) | 0.25 (≈ 0.521 µM) | 8 (≈ 16.7 µM) | 0.5 (≈ 1.04 µM) | 2 (≈ 4.17 µM) | 0.5 (≈ 1.04 µM) | MIC (Klebsiella Pneumoniae; [14]): 0.12 µg/mL (≈ 0.25 µM); MIC (Klebsiella Pneumoniae; [15]): 1 µg/mL (≈ 2.09 µM); MIC (Klebsiella Pneumoniae; [16]): 0.25 µg/mL (≈ 0.521 µM); MIC (Klebsiella Pneumoniae; [17]): 0.25 µg/mL (≈ 0.521 µM); MIC (Proteus mirabilis): ≤ 0.03 µg/mL; MIC (Shigella flexneri): 0.25 µg/mL (≈ 0.521 µM); MIC (Citrobacter freundii): 0.12 µg/mL (≈ 0.25 µM); MIC (Pseudomonas aeruginosa; [18]): 8 µg/mL (≈ 16.7 µM); MIC (Pseudomonas aeruginosa; Pseudomonas aeruginosa 16-11): 8 µg/mL (≈ 16.7 µM); MIC (Pseudomonas aeruginosa; Pseudomonas aeruginosa PAO1): 4 µg/mL (≈ 8.34 µM); MIC (Enterobacter cloacae; [19]): 0.12 µg/mL (≈ 0.25 µM); MIC (Enterobacter cloacae; [20]): 1 µg/mL (≈ 2.09 µM) |
